Assay results from US8022061B2, “N-aryl pyrazole compounds, compositions, and methods for their use” (Amgen Inc., priority 2006, dated 2011).

Test system: ob/ob mice
Assay: Increase of circulating insulin concentrations in treated ob/ob mice
Assay type: in vivo
Details: male ob/ob mice, 10 minutes after dosing, relative to control group
Method: The results presented below exemplify that administration of the compounds as provided herein to an art-recognized animal model of human diabetes can lead to increased circulating insulin concentrations in the animal model.
Male ob/ob mice were weighed and bled from tail vein, and blood glucose levels were determined with a glucometer. Animals were placed into control and treatment groups having similar averages of glucose levels and body weights. In the morning of the following day, animals were dosed with vehicle (control group) or test article (5 ml/kg, p.o.). Blood samples were collected just before and 10 minutes after dosing, and the samples were assayed for insulin and glucose concentrations.
Table 1 provides exemplary data showing the increase of circulating insulin concentrations (expressed as ng/ml) in treated mice relative to control group at 10 minutes after dosing the treated mice. Concentrations of the exemplary compound tested in the mice are provided in the righthand column.

Compound	Increase in Insulin (dose 10 mg/kg p.o.)	further results
CCCCc1c(C(=O)NCc2cnc3ccccn23)cnn1-c1ncc(Br)c(NC2CCC2)n1 [1-[5-Bromo-4-(cyclobutylamino)pyrimidin-2-yl]-5-butyl-N-(imidazo[1,2-a]pyridin-3-ylmethyl)-1H-pyrazole-4-carboxamide]	7.2 ng/mL	
CCCc1c(C(=O)NC2CCCc3cnccc32)cnn1-c1ncc(C)c(-c2cccs2)n1 (stereo not shown) [1-[5-Methyl-4-(2-thienyl)pyrimidin-2-yl]-5-propyl-N-(5,6,7,8-tetrahydroisoquinolin-5-yl)-1H-pyrazole-4-carboxamide]	8.8 ng/mL	
CCCCc1c(C(=O)NCCn2cncc2C(=O)O)cnn1-c1ncc(C)c(-c2cccs2)n1 [1-{2-[({5-Butyl-1-[5-methyl-4-(2-thienyl)pyrimidin-2-yl]-1H-pyrazol-4-yl}carbonyl)amino]ethyl}-1H-imidazole-5-carboxylic acid]	6.1 ng/mL	
CCOCc1c(C(=O)NC(C)c2ccncc2)cnn1-c1ncc(C)c(-c2cccs2)n1 (stereo not shown) [5-(Ethoxymethyl)-1-[5-methyl-4-(2-thienyl)pyrimidin-2-yl]-N-(1-pyridin-4-ylethyl)-1H-pyrazole-4-carboxamide]	6.7 ng/mL	
CCCCc1c(C(=O)NC(CC)c2ccncc2)cnn1-c1ncc(C)c(-c2cccs2)n1 (stereo not shown) [5-Butyl-1-[5-methyl-4-(2-thienyl)pyrimidin-2-yl]-N-(1-pyridin-4-ylpropyl)-1H-pyrazole-4-carboxamide]	3.1 ng/mL	
CCCCc1c(C(=O)NC2CCCn3cncc32)cnn1-c1ncc(C)c(-c2cccs2)n1 (stereo not shown) [5-Butyl-1-[5-methyl-4-(2-thienyl)pyrimidin-2-yl]-N-(5,6,7,8-tetrahydroimidazo[1,5-a]pyridin-8-yl)-1H-pyrazole-4-carboxamide]		Increase in Insulin (dose 3 mg/kg p.o.): 1.4 ng/mL
CCCCc1c(C(=O)NCc2ccncc2)cnn1-c1ncc(C)c(-c2cccs2)n1 [5-Butyl-1-[5-methyl-4-(2-thienyl)pyrimidin-2-yl]-N-(pyridin-4-ylmethyl)-1H-pyrazole-4-carboxamide]		Increase in Insulin (dose 30 mg/kg p.o.): 4.1 ng/mL
CCCCc1c(C(=O)NC(C)(C)c2ccncc2)cnn1-c1ncc(C)c(-c2cccs2)n1 [5-Butyl-N-(1-methyl-1-pyridin-4-ylethyl)-1-[5-methyl-4-(2-thienyl)pyrimidin-2-yl]-1H-pyrazole-4-carboxamide]		Increase in Insulin (dose 30 mg/kg p.o.): 4.6 ng/mL
CCCCc1c(C(=O)Nc2cccc3ncn(C)c23)cnn1-c1ncc(C)c(-c2cccs2)n1 [5-Butyl-N-(1-methyl-1H-benzo[d]imidazol-7-yl)-1-(5-methyl-4-(thiophen-2-yl)pyrimidin-2-yl)-1H-pyrazole-4-carboxamide]	4.3 ng/mL	
CCCCc1c(C(=O)NC(CO)c2ccncc2)cnn1-c1ncc(C)c(-c2cccs2)n1 (stereo not shown) [5-Butyl-N-(2-hydroxy-1-pyridin-4-ylethyl)-1-[5-methyl-4-(2-thienyl)pyrimidin-2-yl]-1H-pyrazole-4-carboxamide]	4.3 ng/mL	
CCCCc1c(C(=O)NC2CCn3cncc32)cnn1-c1ncc(C)c(-c2cccs2)n1 (stereo not shown) [5-Butyl-N-(6,7-dihydro-5H-pyrrolo[1,2-c]imidazol-7-yl)-1-[5-methyl-4-(2-thienyl)pyrimidin-2-yl]-1H-pyrazole-4-carboxamide]	2.2 ng/mL	
CCCCc1c(C(=O)NCc2cnc3ccccn23)cnn1-c1ncc(C)c(-c2cccs2)n1 [5-Butyl-N-(imidazo[1,2-a]pyridin-3-ylmethyl)-1-[5-methyl-4-(2-thienyl)pyrimidin-2-yl]-1H-pyrazole-4-carboxamide]	8.5 ng/mL	
CCCCc1c(C(=O)NCc2c(C)ncn2CC(=O)N(C)C)cnn1-c1ncc(C)c(-c2cccs2)n1 [5-Butyl-N-({1-[2-(dimethylamino)-2-oxoethyl]-4-methyl-1H-imidazol-5-yl}methyl)-1-[5-methyl-4-(2-thienyl)pyrimidin-2-yl]-1H-pyrazole-4-carboxamide]	4.7 ng/mL	
